From ChEMBL document CHEMBL4706692, “CC-90009: A Cereblon E3 Ligase Modulating Drug That Promotes Selective Degradation of GSPT1 for the Treatment of Acute Myeloid Leukemia” (J Med Chem, 2021)

Experiments:
[1] = tested on: THLE-2; experiment: Cytotoxicity against human THLE-2 cells assessed as cell viability incubated for 72 hrs by cell titer glo assay; format: cell-based; conditions: THLE-2, 72 h
[2] = tested on: KG-1; experiment: Antiproliferative activity against human KG-1 cells assessed as reduction in cell viability incubated for 72 hrs by cell titer glo assay; format: functional, cell-based; conditions: KG-1, 72 h
[3] = Selectivity index, ratio of IC50 for cytotoxicity against human THLE-2 cells to IC50 for antiproliferative activity against human KG-1 cells

## CC(C)(C(=O)NCc1ccc2c(c1)CN(C1CCC(=O)NC1=O)C2=O)c1ccccc1 (stereo not given)
[1]
  IC50: > 10000 nM
[2]
  IC50: > 10000 nM

## O=C1CCC(N2Cc3cc(CNC(=O)Nc4ccccc4)ccc3C2=O)C(=O)N1 (stereo not given)
[1]
  IC50: 60 nM
[2]
  IC50: 15 nM
[3]
  Ratio IC50: 4

## O=C1CCC(N2Cc3cc(CNC(=O)c4ccccc4)ccc3C2=O)C(=O)N1 (stereo not given)
[1]
  IC50: > 10000 nM
[2]
  IC50: > 10000 nM

## O=C1CCC(N2Cc3cc(CNC(=O)C(=O)c4ccccc4)ccc3C2=O)C(=O)N1 (stereo not given)
[1]
  IC50: 196 nM
[2]
  IC50: 9 nM
[3]
  Ratio IC50: 22
